Test results taken from patent US6812230B2, “Non-peptide CCR1 receptor antagonists for the treatment of progressive renal fibrosis” (Schering Aktiengesellschaft, priority 2001, dated 2004).

How the values were obtained:
[1] = test system: renal CCR1, CCR2, CCR5 and collagen I mRNA; experiment: Mouse UUO model: renal chemokine receptor and collagen I mRNA expression by real-time quantitative RT-PCR; type: in vivo, C57BL/6 mice; settings: 10 days following UUO
Method: (§1) Contralateral kidneys served as intraindividual controls.
From each mouse, a specimen of both kidneys was snap frozen in liquid nitrogen and stored at −80° C. Total RNA was prepared as described in Chomczynski, P. and Sacci, N., Anal. Biochem. (1987), Vol. 162, pp. 156-159. The RNA pellet was air-dried, dissolved in DEPC-treated water, and stored at −80° C. One μg of total RNA was subjected to random-primed (Hexamer, Roche) reverse transcription at 42° C. for 1 hour using a modified MMLV reverse transcriptase (Superscript, Life Technologies). Real time RT-PCR was performed on a TaqMan ABI 7700 Sequence Detection System (PE Biosystems) using a heat-activated Taq DNA polymerase (Amplitaq Gold, PE Biosystems). Thermal cycler conditions contained holds at 50° C. for 2 minutes and 95° C. for 10 minutes followed by 40 cycles of 95° C. for 15 seconds and 60° C. for 60 seconds. GAPDH was used as reference gene. The following oligonucleotide primers (300 nM) and probes (100 nM) (PE Biosystems) were used: (a) murine collagen 1α1 (gb X54876; bp 1984-2102); forward primer: 5′-[…]-3′ (SEQ ID NO: 1); reverse primer: 5′-[…]-3′ (SEQ ID NO: 2); internal fluorescence labeled probe (FAM): 5′-[…]-3′ (SEQ ID NO: 3); (b) murine GAPDH (gb M32599, bp 730-836); forward primer: 5′-[…]-3′ (SEQ ID NO: 4); reverse primer: 5′-[…]-3′ (SEQ ID NO: 5); internal fluorescence labeled probe (VIC): 5′-[…]-3′ (SEQ ID NO: 6); (c) murine CCR1 (gb NM_009912, bp 487-586); forward primer: 5′-[…]-3′ (SEQ ID NO: 7); reverse primer: 5′-[…]-3′ (SEQ ID NO: 8); internal fluorescence labeled probe (T1): 5′-[…]-3′ (SEQ ID NO: 9); (d) murine CCR2 (gb NM_009915, bp 984-1095); forward primer: 5′-[…]-3′ (SEQ ID NO: 10); reverse primer: 5′-[…]-3′ (SEQ ID NO: 11); internal fluorescence labeled probe (T1, FAM): 5′-[…]-3′ (SEQ ID NO: 12); and (e) murine CCR5 (gb D83648, bp 1065-1191); forward primer: 5′-[…]-3′ (SEQ ID NO: 13); reverse primer: 5′-[…]-3′ (SEQ ID NO: 14); internal fluorescence labeled probe (T1, FAM): 5′-[…]-3′ (SEQ ID NO: 15).

[2] = test system: collagen I protein; experiment: Mouse UUO model: collagen I protein expression by Western blotting; type: in vivo, C57BL/6 mice; settings: 10 days following UUO (UUO BX 1-10 d), Western blot
Method: as §1
From each mouse, a specimen of both kidneys was snap frozen in liquid nitrogen and stored at −80° C. Kidneys were homogenized in RIPA buffer (50 mM Tris-HCl, pH 8.0, 1% Nonidet P40, 0.5% sodium deoxycholate, 150 mM NaCl, 0.1% SDS, complete Protease-inhibitor tablet (Roche)). Extracted proteins were boiled in loading buffer for 10 minutes, resolved by 8% SDS-PAGE under reducing conditions and transferred to an Immobilon-P membrane (Millipore). After blocking, the filter was incubated with the rabbit polyclonal anti-collagen I antibody (1:1000 in blocking solution, Chemicon) and immune complexes were visualized using horseradish peroxidase-conjugated goat anti-rabbit antibody (1:5000 in blocking solution, Jackson ImmunoResearch) and then processed for detection by enhanced chemiluminescence (ECL, Amersham Pharmacia).

SMILES: C[C@@H]1CN(Cc2ccc(F)cc2)CCN1C(=O)COc1ccc(Cl)cc1NC(N)=O [BX471, (2R)-1-((4-chloro-2-(ureido)phenoxy)methyl)carbonyl-2-methyl-4-(4-fluorobenzyl)piperazine]
- renal collagen I mRNA expression in obstructed kidneys vs vehicle ([1]; p<0.05): significantly reduced
- renal CCR5 mRNA expression in obstructed kidneys vs vehicle ([1]; p=0.003): significantly reduced
- renal CCR1 mRNA expression in obstructed kidneys vs vehicle ([1]; p=0.005): significantly reduced
- renal CCR2 mRNA expression in obstructed kidneys vs vehicle ([1]; p=0.07): reduced, although this decrease did not reach statistical significance
- collagen I protein in renal extracts from the obstructed kidneys vs vehicle [2]: decrease
